Source: patent US12385066B2, “Retroviral transduction using poloxamers” (HELMHOLTZ ZENTRUM MUNCHEN—DEUTSCHES FORSCHU[…] GESUNDHEIT …, priority 2012, dated 2025)

Assays:
HEK293T cells [1] = test: Cell proliferation assay (WST-1), cellular toxicity of adjuvants; type: cell-based, human
Protocol: In 6-well plates, triplicates of 2×10^5 cells per well were seeded and treated with defined adjuvant concentrations ranging from 1 μg/ml to 1000 μg/ml. After 24 hours incubation (at 37° C. with 5% C02) the medium was exchanged with fresh medium and cells were incubated for additional 48 hours. Cell proliferation was determined with the WST-1 colorimetric cell proliferation assay (Roche), according to manufacturer's instructions. Shortly, cells were trypsinized following 100 μl cell incubation with 10 μl WST-1 substrate (at 37° C. with 5% C02) for 2 hours. The assay was performed in 96-well microtiter plates and absorbance was determined at 490 nm using a TECAN-Infinite microplate reader (TECAN).
From potential adjuvant substances for lentiviral gene delivery we selected five representatives from the class of polycation-like and seven from the class of poloxamer-like chemical substances (Tab. 1). HEK293T cells were co-incubated with defined substance concentration for 24 hours, than medium was changed and cells were incubated for additional 48 hours prior measurements of cell proliferation. To test specific HEK293T growth inhibition by different substances we measured incorporation of WST1 substrate and correlated to control cell population without any substance co-incubation (FIG. 1). […]

HEK293T cells [2] = test: Adjuvant-assisted lentiviral (GFP) gene transfer into HEK293T cells, flow cytometry; type: cell-based, human
Protocol: HEK293T cells (2×10^5 cells per well) were covered with 1 ml medium containing lentivirus (GP) with or without adjuvants. […] In given case, plates were centrifuged at 1,000 g for 60 min. After 24 hours incubation (at 37° C. with 5% CO2) the supernatant was exchanged with fresh medium and incubated for additional 48 hours. Combined microscopic analysis and documentation was done after 48 hours post infection (HBO 50/AC and AxioCam MRC, Carl Zeiss AG). […] Plates were centrifuged at 800 g for 90 min.
After lentiviral transduction, cells were washed in PBS and resuspended in PBS with 1 μg/mi propidium iodide (Invitrogen). After 10 min incubation on ice, 30,000 events were analyzed for forward/sideward scatter characteristics, green fluorescence light emission at 530 nm and red fluorescence light emission at 610 nm in FACSDiva (BD Biosciences).
HEK293T cells were covered (for 24 hours) with a mixture of LV with specified adjuvant in a maximum tolerable concentration (1000 μg/ml). LV carrying a CopGFP-coding transgene were applied in decreasing MOI from 2.5 to 0.0025. After medium change, cells were cultivated for another 48 hours and measured for green fluorescent light emission by flow cytometry.
HEK293T cells were covered (for 24 hours) with a mixture of LV as used in example 3 with specified adjuvant up to a maximum applied concentration of 5000 μg/ml Synperonic F108. […]

Row | SMILES | cell proliferation / cellular viability (HEK293T cells [1]; 1000 μg/ml, FIG. 1) | transduction efficiency (in words) (HEK293T cells [2]; MOI 2.5, polybrene 10 μg/ml, others 1000 μg/ml, FIG. 2) | transduction/infection compared with polybrene-assisted LV infection (in words) (HEK293T cells [2]; polybrene 10 μg/ml, others 1000 μg/ml and above) | cell proliferation / toxicity (HEK293T cells [1]; increasing concentrations above 10 μg/ml, FIG. 1a)
1 | CCCCCCCC/C=C\CCCCCCCC(=O)OC[C@H](COP(=O)(O)OCCN)OC(=O)CCCCCCC/C=C\CCCCCCCC [PEA, L-α-Phosphatidyl-ethanolamine-dioleoyl] | remained non-toxic | low transduction rates | failed to further increase this transduction level | 
2 | CC(C)CCC[C@@H](C)[C@H]1CC[C@H]2[C@@H]3CC=C4C[C@@H](OC(=O)NCCN(C)C)CC[C@]4(C)[C@H]3CC[C@]12C.Cl [Cholesterylcarbamate, Cholesteryl-3β-N-(dimethyl-amino-ethyl)-carbamate-hydrochloride] |  |  |  | massive reduction in cell proliferation
